Assay results from ChEMBL document CHEMBL1201862, “PubChem BioAssay data set” (2004).
Active and inactive are the calls of the source.

Experiments:
[1] = biological target: T1, High affinity choline transporter 1 (Homo sapiens, UniProt Q9GZV3); experiment: human choline transporter blockers, potency – cell-based, 5-point CRC, membrane potential dye, dose response (AID 504840); assay type: functional
T1 sequence (Q9GZV3 whole entry): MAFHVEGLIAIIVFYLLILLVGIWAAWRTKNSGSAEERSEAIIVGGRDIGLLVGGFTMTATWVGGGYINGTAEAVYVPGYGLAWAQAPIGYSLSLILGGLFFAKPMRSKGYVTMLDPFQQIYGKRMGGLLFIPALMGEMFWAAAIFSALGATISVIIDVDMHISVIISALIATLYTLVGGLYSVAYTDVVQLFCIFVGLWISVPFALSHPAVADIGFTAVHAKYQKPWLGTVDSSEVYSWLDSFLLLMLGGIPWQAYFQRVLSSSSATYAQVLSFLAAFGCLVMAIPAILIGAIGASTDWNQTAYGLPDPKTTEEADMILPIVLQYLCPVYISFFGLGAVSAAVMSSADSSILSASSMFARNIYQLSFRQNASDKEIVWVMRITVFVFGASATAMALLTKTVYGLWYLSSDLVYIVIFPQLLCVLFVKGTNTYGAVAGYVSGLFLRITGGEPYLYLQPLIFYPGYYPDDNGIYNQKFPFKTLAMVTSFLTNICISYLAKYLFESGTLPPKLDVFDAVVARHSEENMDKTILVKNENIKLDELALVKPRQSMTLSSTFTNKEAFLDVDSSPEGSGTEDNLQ

[2] = biological target: T1, High affinity choline transporter 1; experiment: human choline transporter blockers, potency – cell-based, 10-point CRC, membrane potential dye, dose response (AID 588401); assay type: functional;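 also: membrane potential dye fluorescence of choline-evoked depolarization via CHT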
[3] = Luminescence Cell-Based Dose Retest to Confirm Inhibitors of Cancer Stem Cells. [Related pubchem assays (depositor defined):AID2717, AID2721]; assay type: functional; settings: Homo sapiens
[4] = biological target: T2, Heat shock factor protein 1 (Mus musculus, UniProt P38532); experiment: enhancement of HSF1-driven luciferase signal – cell-based, NIH3T3, luminescence, dose retest, confirmation (AID 435004); assay type: functional;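 also: stress induced by proteasome inhibitor MG132 added 30 min after compound; luciferase reporter driven by HSF1 response element in NIH3T3 cells; actives raise luminescence as potentiators of the MG132 stress response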
T2 sequence (P38532 whole entry): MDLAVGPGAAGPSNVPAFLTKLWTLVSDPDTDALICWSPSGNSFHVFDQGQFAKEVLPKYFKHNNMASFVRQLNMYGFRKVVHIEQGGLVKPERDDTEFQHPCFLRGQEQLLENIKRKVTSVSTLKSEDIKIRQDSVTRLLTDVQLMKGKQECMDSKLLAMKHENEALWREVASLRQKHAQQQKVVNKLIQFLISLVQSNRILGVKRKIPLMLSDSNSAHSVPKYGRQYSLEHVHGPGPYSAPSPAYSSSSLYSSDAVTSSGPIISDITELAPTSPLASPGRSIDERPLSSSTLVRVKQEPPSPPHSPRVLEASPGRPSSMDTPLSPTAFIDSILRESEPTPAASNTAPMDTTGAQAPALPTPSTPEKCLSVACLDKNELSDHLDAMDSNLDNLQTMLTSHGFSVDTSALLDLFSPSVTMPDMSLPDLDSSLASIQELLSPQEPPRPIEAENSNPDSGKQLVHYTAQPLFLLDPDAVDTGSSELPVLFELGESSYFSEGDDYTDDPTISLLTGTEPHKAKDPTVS

[5] = biological target: T3, Replicative DNA helicase DnaB (Mycobacterium tuberculosis, UniProt P9WMR3); experiment: DnaB intein splicing inhibitors, dose response, biochemical, cell-free fluorescence (AID 449749); assay type: functional
T3 sequence (P9WMR3 whole entry): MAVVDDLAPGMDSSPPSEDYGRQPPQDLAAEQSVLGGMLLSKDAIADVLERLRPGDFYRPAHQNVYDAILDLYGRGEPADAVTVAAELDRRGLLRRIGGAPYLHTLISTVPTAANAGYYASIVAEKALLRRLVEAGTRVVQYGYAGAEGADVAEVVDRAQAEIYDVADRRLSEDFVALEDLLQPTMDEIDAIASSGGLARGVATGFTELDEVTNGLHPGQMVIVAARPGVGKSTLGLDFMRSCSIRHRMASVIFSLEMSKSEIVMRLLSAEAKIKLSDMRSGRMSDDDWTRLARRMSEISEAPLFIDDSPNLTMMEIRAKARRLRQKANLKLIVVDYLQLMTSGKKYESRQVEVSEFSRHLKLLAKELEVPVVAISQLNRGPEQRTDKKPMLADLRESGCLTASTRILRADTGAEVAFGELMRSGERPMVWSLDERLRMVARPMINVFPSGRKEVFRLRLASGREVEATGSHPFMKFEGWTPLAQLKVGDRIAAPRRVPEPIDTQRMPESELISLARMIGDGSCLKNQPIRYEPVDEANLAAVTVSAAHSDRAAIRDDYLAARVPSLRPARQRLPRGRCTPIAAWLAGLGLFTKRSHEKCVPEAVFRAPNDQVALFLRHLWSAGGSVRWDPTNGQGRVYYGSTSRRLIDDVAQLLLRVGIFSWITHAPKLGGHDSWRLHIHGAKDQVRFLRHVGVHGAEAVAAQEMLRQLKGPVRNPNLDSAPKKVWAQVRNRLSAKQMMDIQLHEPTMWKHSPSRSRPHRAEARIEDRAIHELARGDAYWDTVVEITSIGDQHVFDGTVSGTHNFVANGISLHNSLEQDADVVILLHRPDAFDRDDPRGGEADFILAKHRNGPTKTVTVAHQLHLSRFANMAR

Protein RecA = biological target: T4, Protein RecA (Mycobacterium tuberculosis, UniProt P9WHJ3); experiment: Fluorescence Cell-Free Homogeneous Dose Retest to Identify Inhibitors of RecA-Intein Splicing Activity. [Related pubchem assays (depositor defined):AID2097, AID2223, AID489010, AID492950]; assay type: functional
T4 sequence (P9WHJ3 whole entry): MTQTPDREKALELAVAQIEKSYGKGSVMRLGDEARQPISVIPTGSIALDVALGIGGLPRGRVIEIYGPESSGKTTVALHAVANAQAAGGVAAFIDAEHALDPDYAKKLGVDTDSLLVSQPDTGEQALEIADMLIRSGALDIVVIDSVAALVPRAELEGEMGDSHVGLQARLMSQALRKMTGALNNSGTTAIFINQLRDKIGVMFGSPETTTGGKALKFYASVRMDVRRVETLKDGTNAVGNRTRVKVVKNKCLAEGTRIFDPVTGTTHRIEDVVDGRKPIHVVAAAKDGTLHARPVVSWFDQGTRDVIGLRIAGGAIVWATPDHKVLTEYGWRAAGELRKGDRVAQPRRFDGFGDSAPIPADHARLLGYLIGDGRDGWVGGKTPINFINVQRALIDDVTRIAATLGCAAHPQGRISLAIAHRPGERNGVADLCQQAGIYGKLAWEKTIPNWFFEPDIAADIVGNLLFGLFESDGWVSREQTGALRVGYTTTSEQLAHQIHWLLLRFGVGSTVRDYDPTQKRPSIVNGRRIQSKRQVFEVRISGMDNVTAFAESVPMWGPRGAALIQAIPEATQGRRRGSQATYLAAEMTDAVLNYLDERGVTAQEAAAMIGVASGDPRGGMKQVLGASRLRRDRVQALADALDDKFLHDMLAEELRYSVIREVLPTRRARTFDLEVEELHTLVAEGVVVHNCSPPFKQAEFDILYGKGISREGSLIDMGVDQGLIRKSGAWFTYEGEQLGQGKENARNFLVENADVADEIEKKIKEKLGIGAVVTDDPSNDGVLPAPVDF

Melanocortin receptor 4 = Melanocortin receptor 4 (Homo sapiens, UniProt P32245); experiment: inhibitors of MC4R cAMP signaling – cell-based, TR-FRET, biased antagonists, dose response (AID 602298); assay type: functional;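 also: antagonist potency against agonist-stimulated cAMP production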
[6] = cAMP pathway inhibition in counterscreen cell line – TR-FRET cAMP detection, counter-screen for MC4R biased antagonist project, dose response (AID 602305); assay type: functional, cell-based;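 also: U2OS cells stimulated with forskolin near its EC80 as the cAMP inducer; potency is for inhibition of forskolin-stimulated cAMP signaling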
[7] = reduction of Shn3 3'UTR-driven luciferase in osteoblasts – cell-based, Clone20 osteoblasts, firefly luciferase, cherry-picked, dose response (AID 624132); assay type: functional;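 also: firefly luciferase luminescence from reporter carrying the Shn3 3'UTR in osteoblasts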
[8] = loss of viability in HepG2 cells – cell-based, CellTiter-Glo, cherry-picked, cytotoxicity control for Shn3 inhibitor project, dose response (AID 624134); assay type: functional
[9] = non-specific 3'UTR reporter inhibition in Clone20-Shn3RL – cell-based, Renilla luciferase, cherry-picked, counter-screen for Shn3 inhibitor project, dose response (AID 624133); assay type: functional
Protein Wnt-3a = Protein Wnt-3a (Mus musculus, UniProt P27467); experiment: antagonism of Wnt3a pathway luciferase reporter – Wnt-LIGHT cells, luminescence, selectivity assay for Gli-SUFU antagonist project, dose response (AID 651570); assay type: functional; settings: read-out: IC50_Mean;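 also: Wnt-LIGHT reporter cells stimulated with conditioned medium from Wnt3a-producing cells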
[10] = HPDE-C7 pancreatic duct cell viability loss – fluorescence, HTS (AID 430); assay type: functional, cell-based; settings: Homo sapiens
[11] = viability loss of HPDE-C7K cells – cell-based, fluorescence, HTS, primary screen (AID 431); assay type: functional; settings: Homo sapiens
[12] = bead-based luminescence quenchers, dual-tagged ARNT – biochemical, AlphaScreen, cherry-pick, artefact control for ARNT-TACC3 interaction inhibitor project, dose response (AID 651705); assay type: functional;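 also: AlphaScreen bead proximity signal that flags compounds interfering with the detection technology; potency reflects signal decrease which marks the compound as an assay artifact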
[13] = biological target: T5, Apoptotic protease-activating factor 1 (Homo sapiens, UniProt O14727); experiment: SAR analysis of small molecule Activators of Apaf-1 in a Fluorescent assay.; assay type: functional; settings: read-out: EC50_Mean;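 also: caspase-3 cleavage of fluorogenic Rh110 DEVD substrate downstream of apoptosome activation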
T5 sequence (O14727 whole entry): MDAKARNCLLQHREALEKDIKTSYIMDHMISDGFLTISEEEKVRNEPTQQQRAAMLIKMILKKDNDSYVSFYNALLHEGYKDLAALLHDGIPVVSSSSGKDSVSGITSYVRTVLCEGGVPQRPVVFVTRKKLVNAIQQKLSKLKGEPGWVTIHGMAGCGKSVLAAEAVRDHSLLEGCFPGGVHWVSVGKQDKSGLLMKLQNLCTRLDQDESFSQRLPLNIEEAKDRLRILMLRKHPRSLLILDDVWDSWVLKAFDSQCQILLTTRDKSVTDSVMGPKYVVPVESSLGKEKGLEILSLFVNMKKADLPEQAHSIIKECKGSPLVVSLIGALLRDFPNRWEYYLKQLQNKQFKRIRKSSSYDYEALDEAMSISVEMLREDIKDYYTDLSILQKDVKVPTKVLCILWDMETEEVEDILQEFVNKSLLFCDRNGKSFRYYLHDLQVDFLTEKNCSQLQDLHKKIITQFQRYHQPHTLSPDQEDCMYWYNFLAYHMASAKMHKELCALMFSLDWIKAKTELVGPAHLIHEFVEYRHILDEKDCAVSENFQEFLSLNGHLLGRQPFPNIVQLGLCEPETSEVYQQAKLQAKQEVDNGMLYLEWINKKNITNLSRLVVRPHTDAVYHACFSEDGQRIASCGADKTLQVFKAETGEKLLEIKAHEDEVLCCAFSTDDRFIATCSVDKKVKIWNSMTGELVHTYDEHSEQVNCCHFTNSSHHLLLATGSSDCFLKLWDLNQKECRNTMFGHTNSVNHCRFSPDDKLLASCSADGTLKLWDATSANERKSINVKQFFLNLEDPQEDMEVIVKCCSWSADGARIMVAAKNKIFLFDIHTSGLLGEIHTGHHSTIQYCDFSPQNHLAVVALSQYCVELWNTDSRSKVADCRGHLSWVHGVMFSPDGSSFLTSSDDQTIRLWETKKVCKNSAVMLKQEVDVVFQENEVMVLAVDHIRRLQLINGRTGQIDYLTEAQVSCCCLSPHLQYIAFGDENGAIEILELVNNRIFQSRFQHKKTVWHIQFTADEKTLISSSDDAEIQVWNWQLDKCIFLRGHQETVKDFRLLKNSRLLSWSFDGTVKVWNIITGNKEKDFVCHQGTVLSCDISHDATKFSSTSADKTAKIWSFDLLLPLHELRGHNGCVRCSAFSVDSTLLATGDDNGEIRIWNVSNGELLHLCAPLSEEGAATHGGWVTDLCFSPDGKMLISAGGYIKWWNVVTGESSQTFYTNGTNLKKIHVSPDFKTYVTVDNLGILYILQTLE

Chain of Protein Wnt-3a (P27467 whole entry): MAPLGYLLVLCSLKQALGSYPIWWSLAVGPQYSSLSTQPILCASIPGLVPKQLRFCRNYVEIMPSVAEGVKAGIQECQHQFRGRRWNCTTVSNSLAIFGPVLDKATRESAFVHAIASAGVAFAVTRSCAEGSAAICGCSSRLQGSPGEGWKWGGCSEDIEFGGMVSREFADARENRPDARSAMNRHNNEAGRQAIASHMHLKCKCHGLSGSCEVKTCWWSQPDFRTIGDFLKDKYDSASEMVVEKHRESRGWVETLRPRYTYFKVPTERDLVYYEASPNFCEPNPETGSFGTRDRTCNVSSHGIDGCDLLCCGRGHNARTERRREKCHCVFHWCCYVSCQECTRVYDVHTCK
Chain of Melanocortin receptor 4 (P32245 whole entry): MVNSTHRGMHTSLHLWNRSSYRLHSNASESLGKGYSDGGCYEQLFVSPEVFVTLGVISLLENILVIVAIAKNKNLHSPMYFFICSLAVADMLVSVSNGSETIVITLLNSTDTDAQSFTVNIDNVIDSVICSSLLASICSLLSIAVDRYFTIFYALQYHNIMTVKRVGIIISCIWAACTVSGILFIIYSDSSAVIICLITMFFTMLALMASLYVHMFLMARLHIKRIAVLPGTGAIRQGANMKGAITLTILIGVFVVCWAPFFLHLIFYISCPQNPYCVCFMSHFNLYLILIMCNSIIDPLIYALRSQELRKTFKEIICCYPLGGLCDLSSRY

SMILES: CC(C)(C)NCC(O)c1cc(O)cc(O)c1 (stereo not given)
- IC50 [1]: 0.0841 µM (active)
- IC50 [2]: 0.0142 µM (active)

SMILES: O=[N+]([O-])c1ccc(CSc2nnc3ccccn23)cc1
- IC50 [1]: 4.29 µM (active)
- IC50 [2]: 0.8 µM (active)

SMILES: O=C(C[S+]([O-])c1ccc(C(F)(F)F)cc1[N+](=O)[O-])Oc1ccccc1 (stereo not given)
- AC50 [3]: 3.71 µM (active)
- EC50 [4]: 22.7 µM (active)
- AC50 [5]: 10.4 µM (active)
- IC50 [1]: 12.3 µM (active)
- EC50 (Protein RecA): 4.59 µM (active)
- IC50 (Melanocortin receptor 4): 13.5 µM (inactive)
- IC50 [6]: > 64.6 µM (inactive)

SMILES: Cc1ccc(-n2nc3ccc(NC(=S)NC(=O)/C=C/c4ccco4)cc3n2)cc1
- IC50 (Melanocortin receptor 4): 55.6 µM (inactive)
- IC50 [6]: > 64.6 µM (inactive)

SMILES: COc1ccc(CNCC(O)COc2cccc3c2OC(C)(C)C3)cc1 (stereo not given)
- AC50 [7]: 1.68 µM (active)
- AC50 [8]: 49.4 µM (active)
- AC50 [9]: 1.57 µM (active)
- IC50 (Protein Wnt-3a): 3.22 µM (active)

SMILES: CCN(CC)S(=O)(=O)c1cc(C(=O)Nc2nncs2)c(Cl)cc1Cl
- EC50 [10]: 13.5 µM (active)
- EC50 [11]: > 20 µM (not active)
- IC50 [1]: 7.64 µM (active)
- IC50 [2]: 6.21 µM (active)

SMILES: COc1ccc(CN(C)Cc2nc(Cc3cccc(F)c3)no2)c2cccnc12
- IC50 (Protein Wnt-3a): 2.18 µM (active)

SMILES: Nc1nc(O)nc(Nc2ccccc2)c1N=O
- AC50 [12]: 111 µM (active)

SMILES: COc1ccc(C2=N[C@H](C(=O)O)CO2)cc1C(F)(F)F
- EC50 [13]: > 100 µM (inactive)

SMILES: CC(CC(F)(F)F)C(=O)O (stereo not given)
- EC50 [13]: > 100 µM (inactive)
